For series [1] the following is noted: Patient S., after therapy (300 mg injection 5 days, then 100 mg perorally 2 times a day).
The conditions of series [2]: doses 20-1500 mg.
The test system of series [3] is macrophages. The note with it: patients with impaired cellular immunity.
The conditions of series [4]: Patient G. The procedure:
Patient two.
Was hospitalized with diagnosis of erysipelas of the left forearm, edema, and exacerbation of psoriasis (temperature at hospitalization was 39.9° C.).
Tameril was injected daily in a single dose of 200 mg in 2 ml water.

For series [5] the following is noted: Patient S.
Series [6] has as its system macrophages. The note with it: inflammatory diseases.
A short description of series [7]: Clinical course of Patient I. (prostatic adenoma). The format is in vivo, human. The procedure:
Patient one.
Was hospitalized with complaints of difficult urination and urges to urinate.
Diagnosis: stage 1I prostatic adenoma.
Two courses of therapy with […] sodium salt dihydrate were performed by injections for 20 and 15 injections, respectively, with a 30-day interval between the injections. Doses of the preparation were from 100 to 500 mg in 1-5 ml of distilled water correspondingly.

For series [8] the following is noted: Patient S., after therapy (300 mg injection 5 days, then 100 mg perorally 2 times a day). This is another data set of the same source.
For series [9] the following is noted: cited from earlier work.
Series [10] relates to macrophages. The note with it: cited from earlier work.
For series [11] the following is noted: prior-art preparations, powder; cited from earlier work.
[12] abbreviates: erysipelas and psoriasis, after therapy (200 mg injection daily, then 100 mg for 5 days).

The text below walks through data of US20020198208A1, “MEDICINAL PREPARATION AND PROCESS FOR MANUFACTURING THEREOF” (priority 2000, published 2002).

Molecules are shown by their SMILES. Where two headings read alike, the source gives them in different places.

As to `Nc1cccc2c(=O)[nH][nH]c(=O)c12.[Na]` [Tamerit, 5-amino-2,3-dihydrophthalazine-1,4-dione sodium salt], in series [1], the B-lymphocytes is 24.5%, the “Immunoglobulin A” value turned out to be 2.20 g/L, the “Immunoglobulin G” value is 12.4 g/L and the “Immunoglobulin M” value came to 2.21 g/L. For the same compound, in series [1], the Latex phagocytosis is reported as 76.2%, the T-helpers worked out at 29.5%, the T-lymphocytes is listed as 67.0% and the T-suppressors came out at 23.5%. In series [1], the TNF was 22.5. Moreover, the “side effects and allergic reactions” value in series [2] is “does not cause side effects and allergic reactions”. Also, the “effect on T-lymphocytes” value in [3] is given as “initiates specific reactions of T-lymphocytes”. Further, in series [3] (e.g. malignant neoplasms, evident by release of TNF, interleukins, other acute-phase proteins), the effect on macrophages result was “causes activation of macrophages”. The “time to disappearance of edema and hyperemia of the left forelimb” value in [4] (200 mg injected daily) was found to be 4 days. Further, the “state of the patient” value in [4] (after 200 mg daily then 100 mg injections for 5 days) was “satisfactory state”. In series [4] (setting [12]), the B-lymphocytes came out at 25.0%, the ESR is recorded as 16.0 mm/h, the Eosinophils is given as 4.0% and the Erythrocytes stood at 6.9e+12 L⁻¹. In [4] (setting [12]), the Hemoglobin was 148 g/L, the “Immunoglobulin A” value was determined as 2.47 g/L, the “Immunoglobulin G” value amounted to 13.7 g/L and the “Immunoglobulin M” value turned out to be 2.31 g/L. In [4] (setting [12]), this compound registered a Latex phagocytosis of 83.4%, a Leukocytes of 6.2e+09 L⁻¹, a Lymphocytes of 26.3% and a Monocytes of 2.0%. In [4] (setting [12]), the “Neutrophils: Segmented” value is 65.5%, the “Neutrophils: Stab” value was determined as 5.7%, the T-helpers is 31.2% and the T-lymphocytes amounted to 60.3%. In series [4] (setting [12]), this compound had a T-suppressors of 20.1% and a TNF of 24.4. In addition, the “state of the patient” value in [5] (10 days after beginning of the therapy) was “satisfactory state”. In addition, the “state of the patient (cough, temperature)” value in series [5] (three days after beginning of the therapy) is “cough disappeared, and temperature returned to normal”. In addition, in series [6], the “contents of TNF and acute-phase proteins” value is “decreasing the contents of TNF and acute-phase proteins”; the “function of neutrophilic granulocytes” value was “enhances super-oxidizing function and phagocytic activity of neutrophilic granulocytes”. Also, the “state of the patient (urination)” value in series [7] (10 daily injections of 200 mg after the 2-amino courses) is “urination was normalized”. In series [8], this compound displayed an ESR of 13.0 mm/h, an Eosinophils of 3.0%, an Erythrocytes of 5e+12 L⁻¹ and a Hemoglobin of 147 g/L. In addition, in series [8], the Leukocytes was 5.5e+09 L⁻¹, the Lymphocytes amounted to 23.0%, the Monocytes is given as 6.0% and the “Neutrophils: Segmented” value was determined as 74.0%. In addition, the “Neutrophils: Stab” value in [8] was 6.0%.

Consider `Nc1cccc2c(=O)[nH][nH]c(=O)c12` [luminol, 5-amino-2,3-dihydrophthalazine-1,4-dione], for which, in series [9] (in vivo), the medical effectiveness result was “medically ineffective”.

On to `Nn1[nH]c(=O)c2ccccc2c1=O.O.O.[Na]` [2-amino, 2-amino-1,2,3,4-tetrahydrophthalazine-1,4-dione sodium salt dihydrate], for which the effect on macrophages result was “inactivates macrophages for several hours” in [10] (inflammatory processes); “activates macrophages, interleukins and other acute-phase proteins” in [10] (patients with impaired cellular immunity, e.g. malignant neoplasms). Moreover, the solubility in water result in series [11] is “easily soluble in water”. Further, in series [9] (in vivo), the “side effects and allergic reactions” value is “does not cause side effects and allergic reactions”. The “effect of longterm treatment” value in series [9] (patients with chronic and other diseases) was “causes tolerance and decreases the efficiency of therapy”. In addition, the size of adenoma entry in series [7] (after the first course of 20 injections) is on record as “decreased”; in series [7] (after the second course of 15 injections), “remained without further positive dynamic”.
